Patent US20220184041A1, “(AZA)Benzothiazolyl Substituted Pyrazole Compounds” (Pfizer Inc., priority 2020, published 2022)
Like-named read-outs stand apart in the source and are kept apart here. One block for each compound: values may come before it.

What was measured:
[1] = biological target: T1, human TTR (biotinylated recombinant protein) (Homo sapiens, UniProt P02766); assay: TTR SPA binding assay ([3H] tafamidis displacement), EC50 determination; settings: read-out: Geometric Mean EC50
T1 construct: biotin (biotinylated)
Protocol: Binding of Examples to Transthyretin—EC50 Determination
Briefly, assays were prepared at room temperature in 384-well plates (Corning, 3767) containing 200 nL of test compound in DMSO (or DMSO as vehicle). […] The plates were incubated 1 hour prior to addition of 20 μL of 1.25 mg/mL SPA beads diluted in assay buffer. The assays were incubated an additional 10 hours to allow binding to reach equilibrium and the amount of receptor-ligand complex was determined by liquid scintillation counting using a 1450 Microbeta Trilux (Wallac).
The % effect values for test wells were calculated based on the total binding (vehicle, 0% effect) and non-specific binding (unlabeled ligand, 100% effect) wells on each assay plate. EC50 values were then determined using a standard 4 parameter logistic dose response equation.

Bap-tagged TTR protein = biological target: T2, Bap-tagged TTR protein (Homo sapiens, UniProt P02766); assay: KD determination by SPR (Surface Plasmon Resonance binding assay); settings: for Kd: 1:1 binding model, read-out: Geometric Mean KD (μM) [SPR]
T2 construct: Bap tag (biotin acceptor peptide, by own knowledge)
Protocol: Affinity and Reversibility—The binding affinity and kinetics of binding were measured using Surface Plasmon Resonance based binding assay. […] Bap-tagged TTR protein was captured on a Streptavidin coated sensor chip to achieve about 2000 to 3000 RUs of surface density. All the samples were prepared in buffer consisting of 10 mM Sodium Phosphate, pH 7.6, 100 mM KCl, 0.005% Tween-20 and 2% DMSO. The same buffer was used as the running buffer during the experiments. Compound samples were injected at a flow rate of 30 μL/min for 90 seconds of association time followed by at least 240 seconds of dissociation period. The compounds were tested in a concentration series consisting of at least 6 samples (usually 10) made with 5-fold, 3-fold, or 2-fold dilution. […] Multiple blank injections were run before and after each compound series to allow double reference subtraction during data processing and analysis. […] A DMSO curve was run during each experiment to properly correct for excluded volume.

[2] = biological target: Recombinant wild-type TTR (Homo sapiens, UniProt P02766); assay: KD determination by ITC (Isothermal Titration Calorimetry); settings: 25° C., sequential binding model with 2 sites
Protocol: KD Determination by ITC—Isothermal Titration Calorimetry
Recombinant wild-type TTR was diluted to 6.9 μM in 100 mM potassium chloride, 10 mM sodium phosphate pH 7.6, 2.5% DMSO, then degassed and transferred to the sample cell of a VP-ITC instrument (MicroCal). Compounds were diluted to 120 μM in an identical buffer, degassed, and injected 7 μL at a time into the protein solution at 25° C. with a reference power of 10 μCal/sec and 300 second spacing between injections.
Data were analyzed using VP-ITC analysis software in Origin. The data were corrected for heat of dilution then fit to a sequential binding model with 2 sites and K1, ΔH1, K2, and ΔH2 as independent parameters. If necessary, the protein concentration was adjusted by fitting the data to a two-independent-sites model and using the calculated N values to estimate the actual protein concentration that yields two total sites.

[3] = SPA, 50 nM [3H] tafamidis, 100 ng human TTR
[4] = first site, read-out: Geometric Mean KD1 (μM) [ITC]
[5] = second site, read-out: Geometric Mean KD2 (μM) [ITC]

Structure (SMILES): Cc1n[nH]c(C)c1-c1ccc(C(F)(F)F)c2scnc12 [Example 4, 4-(3,5-dimethyl-1H-pyrazol-4-yl)-7-(trifluoromethyl)-1,3-benzothiazole]
EC50 [1, 3]: 0.04 µM | Kd (Bap-tagged TTR protein): 0.049 µM

Structure (SMILES): Cc1nc2c(-c3c(C)n[nH]c3C)cccc2s1 [Example 6, 4-(3,5-dimethyl-1H-pyrazol-4-yl)-2-methyl-1,3-benzothiazole]
EC50 [1, 3]: 1.78 µM | Kd (Bap-tagged TTR protein): 0.574 µM

Structure (SMILES): Cc1[nH]nc(C#N)c1-c1cccc2scnc12 [Example 7, 4-(1,3-benzothiazol-4-yl)-5-methyl-1H-pyrazole-3-carbonitrile]
EC50 [1, 3]: 0.0661 µM | Kd (Bap-tagged TTR protein): 0.074 µM

Structure (SMILES): Cc1[nH]nc(C#N)c1-c1ccc(C)c2scnc12 [Example 8, 5-methyl-4-(7-methyl-1,3-benzothiazol-4-yl)-1H-pyrazole-3-carbonitrile]
EC50 [1]: 0.0196 µM | Kd (Bap-tagged TTR protein): 0.027 µM

Structure (SMILES): Cc1[nH]nc(C#N)c1-c1ccc(C(F)(F)F)c2scnc12 [Example 9, 5-methyl-4-[7-(trifluoromethyl)-1,3-benzothiazol-4-yl]-1H-pyrazole-3-carbonitrile]
EC50 [1]: 0.0355 µM | Kd (Bap-tagged TTR protein): 0.62 µM

Structure (SMILES): COc1ccc(-c2c(C)n[nH]c2C)c2ncsc12 [Example 11, 4-(3,5-dimethyl-1H-pyrazol-4-yl)-7-methoxy-1,3-benzothiazole]
EC50 [1, 3]: 0.0363 µM

Structure (SMILES): Cc1n[nH]c(C)c1-c1cc(F)cc2scnc12 [Example 15, 4-(3,5-dimethyl-1H-pyrazol-4-yl)-6-fluoro-1,3-benzothiazole]
EC50 [1]: 0.0205 µM | Kd (Bap-tagged TTR protein): 0.027 µM

Structure (SMILES): Cc1n[nH]c(C)c1-c1cc(C#N)cc2scnc12 [Example 16, 4-(3,5-dimethyl-1H-pyrazol-4-yl)-1,3-benzothiazole-6-carbonitrile]
EC50 [1, 3]: 0.159 µM

Structure (SMILES): Cc1n[nH]c(C)c1-c1ccnc2scnc12 [Example 19, 7-(3,5-dimethyl-1H-pyrazol-4-yl)[1,3]thiazolo[5,4-b]pyridine]
EC50 [1, 3]: 0.165 µM

The next lines start with the values.

EC50 [1, 3]: 0.031 µM | Kd (Bap-tagged TTR protein): 0.039 µM | Kd [2, 4]: 0.025 µM | Kd [2, 5]: 0.458 µM
Structure (SMILES): Cc1n[nH]c(C)c1-c1cccc2scnc12 [Example 1, 4-(3,5-dimethyl-1H-pyrazol-4-yl)-1,3-benzothiazole]

Kd [2, 4]: 0.005 µM | Kd [2, 5]: 0.431 µM
Structure (SMILES): Cc1n[nH]c(C)c1-c1cccc2ncsc12 [Example 2, 7-(3,5-dimethyl-1H-pyrazol-4-yl)-1,3-benzothiazole]

EC50 [1, 3]: 0.02 µM | Kd (Bap-tagged TTR protein): 0.02 µM
Structure (SMILES): Cc1n[nH]c(C)c1-c1ccc(C)c2scnc12 [Example 3, 4-(3,5-dimethyl-1H-pyrazol-4-yl)-7-methyl-1,3-benzothiazole]

EC50 [1, 3]: 0.052 µM | Kd (Bap-tagged TTR protein): 0.052 µM
Structure (SMILES): Cc1n[nH]c(C)c1-c1ccc(C#N)c2scnc12 [Example 5, 4-(3,5-dimethyl-1H-pyrazol-4-yl)-1,3-benzothiazole-7-carbonitrile]

EC50 [1, 3]: 0.894 µM | Kd (Bap-tagged TTR protein): 0.297 µM
Structure (SMILES): Cc1n[nH]c(C)c1-c1nccc2scnc12 [Example 10, 4-(3,5-dimethyl-1H-pyrazol-4-yl)[1,3]thiazolo[4,5-c]pyridine]

EC50 [1, 3]: 0.0372 µM
Structure (SMILES): Cc1n[nH]c(C)c1-c1ccc(F)c2scnc12 [Example 12, 4-(3,5-dimethyl-1H-pyrazol-4-yl)-7-fluoro-1,3-benzothiazole]

EC50 [1]: 0.0214 µM | Kd (Bap-tagged TTR protein): 0.058 µM
Structure (SMILES): Cc1cc(-c2c(C)n[nH]c2C)c2ncsc2c1 [Example 13, 4-(3,5-dimethyl-1H-pyrazol-4-yl)-6-methyl-1,3-benzothiazole]

EC50 [1]: 0.0245 µM | Kd (Bap-tagged TTR protein): 0.031 µM
Structure (SMILES): COc1cc(-c2c(C)n[nH]c2C)c2ncsc2c1 [Example 14, 4-(3,5-dimethyl-1H-pyrazol-4-yl)-6-methoxy-1,3-benzothiazole]

EC50 [1, 3]: 0.0287 µM
Structure (SMILES): Cc1n[nH]c(C)c1-c1c(F)ccc2scnc12 [Example 17, 4-(3,5-dimethyl-1H-pyrazol-4-yl)-5-fluoro-1,3-benzothiazole]

EC50 [1, 3]: 0.133 µM
Structure (SMILES): Cc1[nH]nc(C(F)(F)F)c1-c1cccc2scnc12 [Example 18, 4-[5-methyl-3-(trifluoromethyl)-1H-pyrazol-4-yl]-1,3-benzothiazole]

reversibility of binding to TTR (Bap-tagged TTR protein): reversible | t1/2 (Bap-tagged TTR protein; tafamidis binding to TTR, n=24): 40.8 s
Structure (SMILES): O=C(O)c1ccc2nc(-c3cc(Cl)cc(Cl)c3)oc2c1 [tafamidis, 2-(3,5-dichlorophenyI)-1,3-benzoxazole-6-carboxylic acid, reference compound]
